Test results: ChEMBL document CHEMBL3804786, “Novel 1,3-thiazolidin-4-one derivatives as promising anti-Candida agents endowed with anti-oxidant and chelating properties” (Eur J Med Chem, 2016)
≈ marks a conversion by molar mass, not a printed value.

Assays:
Staphylococcus aureus = experiment: Antibacterial activity against Staphylococcus aureus clinical isolate after 18 to 22 hrs by broth microdilution method; type: functional
Staphylococcus warneri = experiment: Antibacterial activity against Staphylococcus warneri clinical isolate after 18 to 22 hrs by broth microdilution method; type: functional
Enterococcus faecalis = experiment: Antibacterial activity against Streptococcus faecalis clinical isolate after 18 to 22 hrs by broth microdilution method; type: functional
Escherichia coli = experiment: Antibacterial activity against Escherichia coli after clinical isolate 18 to 22 hrs by broth microdilution method; type: functional
Proteus mirabilis = experiment: Antibacterial activity against Proteus mirabilis clinical isolate after 18 to 22 hrs by broth microdilution method; type: functional
Enterobacter sp. = experiment: Antibacterial activity against Enterobacter spp. clinical isolate after 18 to 22 hrs by broth microdilution method; type: functional
Klebsiella oxytoca = experiment: Antibacterial activity against Klebsiella oxytoca clinical isolate after 18 to 22 hrs by broth microdilution method; type: functional
Candida albicans = experiment: Antifungal activity against Candida albicans clinical isolate after 24 hrs by broth microdilution method; type: functional
Nakaseomyces glabratus = experiment: Antifungal activity against Candida glabrata clinical isolate after 24 hrs by broth microdilution method; type: functional
Candida tropicalis = experiment: Antifungal activity against Candida tropicalis clinical isolate after 24 hrs by broth microdilution method; type: functional
Pichia kudriavzevii = experiment: Antifungal activity against Candida krusei clinical isolate after 24 hrs by broth microdilution method; type: functional
Candida parapsilosis = experiment: Antifungal activity against Candida parapsilosis clinical isolate after 24 hrs by broth microdilution method; type: functional; details: Lodderomyces parapsilosis
[Candida] sake = Antifungal activity against Candida sake clinical isolate after 24 hrs by broth microdilution method; type: functional; details: Fermentozyma sake
[1] = Cytotoxicity against human Hep2 cells assessed as cell survival at 0.05 ug/ml after 24 hrs by trypan blue exclusion assay; type: cell-based, HEp-2; details: read-out: Survival
[2] = Cytotoxicity against human Hep2 cells assessed as cell survival at 0.5 ug/ml after 24 hrs by trypan blue exclusion assay; type: cell-based, HEp-2; details: read-out: Survival
[3] = Cytotoxicity against human Hep2 cells assessed as cell survival at 5 ug/ml after 24 hrs by trypan blue exclusion assay; type: cell-based, HEp-2; details: read-out: Survival
[4] = Cytotoxicity against human Hep2 cells assessed as cell survival at 10 ug/ml after 24 hrs by trypan blue exclusion assay; type: cell-based, HEp-2; details: read-out: Survival
[5] = Cytotoxicity against human Hep2 cells assessed as cell survival at 50 ug/ml after 24 hrs by trypan blue exclusion assay; type: cell-based, HEp-2; details: read-out: Survival
[6] = Cytotoxicity against human Hep2 cells assessed as reduction in cell viability after 24 hrs by trypan blue exclusion assay; type: cell-based, HEp-2
[7] = Antioxidant activity of the compound after 90 mins by phosphomolybdenum assay; type: physicochemical
[8] = Antioxidant activity of the compound after 30 mins by FRAP assay; type: physicochemical
[9] = Antioxidant activity of the compound after 30 mins by CUPRAC method; type: physicochemical
[10] = Antioxidant activity assessed as DPPH radical scavenging activity after 30 mins under dark conditions; type: physicochemical
[11] = Antioxidant activity assessed as ABTS radical scavenging activity after 30 mins under dark conditions; type: physicochemical
[12] = Metal chelating activity of the compound assessed as ferrous ion complex formation after 10 mins; type: physicochemical
[13] = tested on: Streptococcus sp. (viridans group); experiment: Antibacterial activity against Streptococcus alpha-hemolyticus clinical isolate after 18 to 22 hrs by broth microdilution method

| SMILES | MIC (Staphylococcus aureus) [µg/mL] | MIC (Staphylococcus warneri) [µg/mL] | MIC (Enterococcus faecalis) [µg/mL] | MIC (Escherichia coli) [µg/mL] | MIC (Proteus mirabilis) [µg/mL] | MIC (Enterobacter sp.) [µg/mL] | MIC (Klebsiella oxytoca) [µg/mL] | MIC (Candida albicans) [µg/mL] | MIC (Nakaseomyces glabratus) [µg/mL] | MIC (Candida tropicalis) [µg/mL] | MIC (Pichia kudriavzevii) [µg/mL] | MIC (Candida parapsilosis) [µg/mL] | MIC ([Candida] sake) [µg/mL] | viability at 24 h, 0.05 ug/ml [1] [%] | viability at 24 h, 0.5 ug/ml [2] [%] | viability at 24 h, 5 ug/ml [3] [%] | viability at 24 h, 10 ug/ml [4] [%] | viability at 24 h, 50 ug/ml [5] [%] | CC50 at 24 h [6] [µg/mL] | EC50 [7] [mM] | other results |
| --- | --- | --- | --- | --- | --- | --- | --- | --- | --- | --- | --- | --- | --- | --- | --- | --- | --- | --- | --- | --- | --- |
| O=C1CS/C(=N\N=C2CCCC2)N1Cc1ccccc1F | > 256 | > 256 | > 256 | > 256 | > 256 | > 256 | > 256 | 2 (≈ 6.55 µM) | 2 (≈ 6.55 µM) | 2 (≈ 6.55 µM) | 8 (≈ 26.2 µM) | 2 (≈ 6.55 µM) | 2 (≈ 6.55 µM) | 82 | 69 | 52 | 37 | 0 | 11 (≈ 36 µM) | 0.7 | EC50 [8]: 5.63 mM; EC50 [9]: 2.37 mM; IC50 [10]: > 5 mM; IC50 [11]: 12.4 mM; IC50 [12]: > 5 mM; MIC [13]: > 256 µg/mL |
| C/C(=N/N=C1\SCC(=O)N1Cc1ccccc1[N+](=O)[O-])c1cccs1 | > 256 | > 256 | > 256 | > 256 | > 256 | > 256 | > 256 | 2 (≈ 5.34 µM) | 2 (≈ 5.34 µM) | 4 (≈ 10.7 µM) | 2 (≈ 5.34 µM) | 8 (≈ 21.4 µM) | 2 (≈ 5.34 µM) | 88 | 84 | 74 | 61 | 0 | 20 (≈ 53.4 µM) | 1.12 | EC50 [8]: 2.4 mM; EC50 [9]: 2.25 mM; IC50 [10]: > 5 mM; IC50 [11]: 18.1 mM; IC50 [12]: > 5 mM; MIC [13]: > 256 µg/mL |
| CC(C)=N/N=C1\SCC(=O)N1Cc1cccc([N+](=O)[O-])c1 | > 256 | > 256 | > 256 | > 256 | > 256 | > 256 | > 256 | 2 (≈ 6.53 µM) | 2 (≈ 6.53 µM) | 2 (≈ 6.53 µM) | 2 (≈ 6.53 µM) | 16 (≈ 52.2 µM) | 2 (≈ 6.53 µM) | 79 | 68 | 51 | 0 | 0 | 5 (≈ 16.3 µM) | 1.24 | EC50 [8]: 5.29 mM; EC50 [9]: 2.35 mM; IC50 [10]: > 5 mM; IC50 [11]: 19.4 mM; IC50 [12]: > 5 mM; MIC [13]: > 256 µg/mL |
| O=C1CS/C(=N\N=C2CCCC2)N1Cc1ccc(Cl)cc1 | > 256 | > 256 | > 256 | > 256 | > 256 | > 256 | > 256 | 2 (≈ 6.21 µM) | 2 (≈ 6.21 µM) | 2 (≈ 6.21 µM) | 8 (≈ 24.9 µM) | 2 (≈ 6.21 µM) | 4 (≈ 12.4 µM) | 89 | 83 | 59 | 47 | 0 | 16 (≈ 49.7 µM) | 0.56 | EC50 [8]: 4.8 mM; EC50 [9]: 2.1 mM; IC50 [10]: > 5 mM; IC50 [11]: 18.3 mM; IC50 [12]: > 5 mM; MIC [13]: > 256 µg/mL |
